Data reported in patent US10844077B2, “Thiazolyl-containing compounds for treating proliferative diseases” (Dana-Farber Cancer Institute, Inc., priority 2014, dated 2020).
Where two headings read alike, the source gives them in different places.

Assays:
Format in all cases: binding
[1] = target: broad panel of kinases (Homo sapiens, UniProt P42336, E545A); settings: PIK3CA(E545A); 1 μM
[2] = target: broad panel of kinases (Homo sapiens, UniProt Q96L34); settings: MARK4; 1 μM
[3] = target: broad panel of kinases (Homo sapiens, UniProt O15530); settings: PDPK1; 1 μM
[4] = target: broad panel of kinases (Homo sapiens, UniProt P08581, M1250T); settings: MET(M1250T); 1 μM
[5] = target: broad panel of kinases (Homo sapiens, UniProt P52333); settings: JAK3(JH1domain-catalytic); 1 μM
[6] = target: broad panel of kinases (Homo sapiens, UniProt P00533, T790M); settings: EGFR(T790M); 1 μM
[7] = target: broad panel of kinases (Homo sapiens, UniProt P06241); settings: FYN; 1 μM
[8] = target: broad panel of kinases (Homo sapiens, UniProt O14976); settings: GAK; 1 μM
[9] = target: broad panel of kinases (Homo sapiens, UniProt Q9NWZ3); settings: IRAK4; 1 μM
[10] = target: broad panel of kinases (Homo sapiens, UniProt P23458); settings: 1 μM
[11] = target: broad panel of kinases (Homo sapiens, UniProt P78368); settings: CSNK1G2; 1 μM
[12] = target: broad panel of kinases (Homo sapiens, UniProt Q16832); settings: DDR2; 1 μM
[13] = target: broad panel of kinases (Homo sapiens, UniProt P19784); settings: CSNK2A2; 1 μM
[14] = target: broad panel of kinases (Homo sapiens, UniProt Q9BZL6); settings: PRKD2; 1 μM
[15] = target: broad panel of kinases (Homo sapiens, UniProt P68400); settings: CSNK2A1; 1 μM
[16] = target: broad panel of kinases (Homo sapiens, UniProt Q13163); settings: MEK5; 1 μM
[17] = target: broad panel of kinases (Homo sapiens, UniProt Q9H2X6); settings: HIPK2; 1 μM
[18] = target: broad panel of kinases (Plasmodium falciparum, UniProt P61075)
[19] = target: broad panel of kinases (Homo sapiens, UniProt P36507); settings: MEK2; 1 μM
[20] = target: broad panel of kinases (Homo sapiens, UniProt P07332); settings: FES; 1 μM
[21] = target: broad panel of kinases (Homo sapiens, UniProt P50613); settings: CDK7; 1 μM
[22] = target: broad panel of kinases (Homo sapiens, UniProt O15197); settings: EPHB6; 1 μM
[23] = target: broad panel of kinases (Homo sapiens, UniProt Q15208); settings: NDR1; 1 μM
[24] = target: broad panel of kinases (Homo sapiens, UniProt P32298); settings: GRK4; 1 μM
[25] = target: broad panel of kinases (Homo sapiens, UniProt P11309); settings: P1M1 (PIM1); 1 μM
[26] = target: broad panel of kinases (Homo sapiens, UniProt P42336, Q546K); settings: PIK3CA(Q546K); 1 μM
[27] = target: broad panel of kinases (Homo sapiens, UniProt P21709); settings: EPHA1; 1 μM
[28] = target: broad panel of kinases (Homo sapiens, UniProt Q00536); settings: PCTK1; 1 μM
[29] = target: broad panel of kinases (Homo sapiens, UniProt P21802); settings: FGFR2; 1 μM
[30] = target: broad panel of kinases (Homo sapiens, UniProt P42684); settings: ABL2; 1 μM
[31] = target: broad panel of kinases (Homo sapiens, UniProt P08922); settings: ROS1; 1 μM
[32] = target: broad panel of kinases (Homo sapiens, UniProt O76039); settings: CDKL5; 1 μM
[33] = target: broad panel of kinases (Homo sapiens, UniProt Q12866); settings: MERTK; 1 μM
[34] = target: broad panel of kinases (Homo sapiens, UniProt P29320); settings: EPHA3; 1 μM
[35] = target: broad panel of kinases (Homo sapiens, UniProt Q7KZI7); settings: MARK2; 1 μM
[36] = target: broad panel of kinases (Homo sapiens, UniProt Q9UK32); settings: 1 μM

broad panel of kinases (Homo sapiens, UniProt Q16832), sequence (Q16832 22-855 limits assumed): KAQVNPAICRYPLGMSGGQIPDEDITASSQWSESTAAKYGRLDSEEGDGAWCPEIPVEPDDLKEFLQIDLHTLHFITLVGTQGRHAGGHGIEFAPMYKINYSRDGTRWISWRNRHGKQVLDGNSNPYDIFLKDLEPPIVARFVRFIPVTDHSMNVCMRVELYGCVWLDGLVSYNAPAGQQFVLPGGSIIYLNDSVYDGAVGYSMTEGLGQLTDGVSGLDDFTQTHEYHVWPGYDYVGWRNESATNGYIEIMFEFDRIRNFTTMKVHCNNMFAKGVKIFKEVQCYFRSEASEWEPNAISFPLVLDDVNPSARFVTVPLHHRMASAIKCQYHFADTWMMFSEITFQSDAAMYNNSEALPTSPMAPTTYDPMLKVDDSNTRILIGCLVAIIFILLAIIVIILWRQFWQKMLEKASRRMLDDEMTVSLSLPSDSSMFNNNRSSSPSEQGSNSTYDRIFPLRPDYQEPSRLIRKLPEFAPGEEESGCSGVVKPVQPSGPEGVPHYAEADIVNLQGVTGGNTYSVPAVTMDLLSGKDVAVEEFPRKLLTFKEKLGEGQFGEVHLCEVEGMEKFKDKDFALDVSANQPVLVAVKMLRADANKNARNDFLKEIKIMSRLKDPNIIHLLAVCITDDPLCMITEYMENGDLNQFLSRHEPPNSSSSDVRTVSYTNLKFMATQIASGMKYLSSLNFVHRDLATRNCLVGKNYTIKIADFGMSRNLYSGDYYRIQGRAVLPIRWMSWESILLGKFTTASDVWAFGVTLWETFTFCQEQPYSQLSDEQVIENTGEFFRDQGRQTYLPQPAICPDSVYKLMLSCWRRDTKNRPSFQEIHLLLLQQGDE
broad panel of kinases (Homo sapiens, UniProt P21709), sequence (P21709 26-976 limits assumed): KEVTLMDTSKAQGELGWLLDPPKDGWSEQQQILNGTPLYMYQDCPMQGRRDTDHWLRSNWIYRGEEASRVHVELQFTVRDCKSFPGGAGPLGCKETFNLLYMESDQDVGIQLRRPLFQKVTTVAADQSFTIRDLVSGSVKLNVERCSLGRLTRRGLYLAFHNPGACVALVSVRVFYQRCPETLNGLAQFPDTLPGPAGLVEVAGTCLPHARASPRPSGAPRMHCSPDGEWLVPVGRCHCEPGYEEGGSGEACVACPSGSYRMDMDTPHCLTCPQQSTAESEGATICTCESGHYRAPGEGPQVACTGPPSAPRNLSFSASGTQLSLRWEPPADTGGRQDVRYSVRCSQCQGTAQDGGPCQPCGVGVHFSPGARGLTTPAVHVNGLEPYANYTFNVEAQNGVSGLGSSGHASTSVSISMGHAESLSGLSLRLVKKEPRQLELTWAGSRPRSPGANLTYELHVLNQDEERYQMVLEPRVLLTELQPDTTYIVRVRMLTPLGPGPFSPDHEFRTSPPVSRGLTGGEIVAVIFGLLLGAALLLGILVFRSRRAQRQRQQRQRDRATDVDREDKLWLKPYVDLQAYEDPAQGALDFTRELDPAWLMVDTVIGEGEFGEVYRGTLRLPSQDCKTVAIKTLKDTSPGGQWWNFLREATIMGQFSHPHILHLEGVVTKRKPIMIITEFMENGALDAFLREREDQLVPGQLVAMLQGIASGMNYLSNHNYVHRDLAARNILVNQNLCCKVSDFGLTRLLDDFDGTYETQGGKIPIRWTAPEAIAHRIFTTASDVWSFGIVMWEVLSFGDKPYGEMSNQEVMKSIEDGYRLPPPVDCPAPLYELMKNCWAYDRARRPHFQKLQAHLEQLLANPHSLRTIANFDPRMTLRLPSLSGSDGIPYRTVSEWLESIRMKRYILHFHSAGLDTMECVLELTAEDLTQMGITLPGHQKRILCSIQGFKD
broad panel of kinases (Homo sapiens, UniProt P00533, T790M), sequence (P00533 25-1210 T790M limits assumed): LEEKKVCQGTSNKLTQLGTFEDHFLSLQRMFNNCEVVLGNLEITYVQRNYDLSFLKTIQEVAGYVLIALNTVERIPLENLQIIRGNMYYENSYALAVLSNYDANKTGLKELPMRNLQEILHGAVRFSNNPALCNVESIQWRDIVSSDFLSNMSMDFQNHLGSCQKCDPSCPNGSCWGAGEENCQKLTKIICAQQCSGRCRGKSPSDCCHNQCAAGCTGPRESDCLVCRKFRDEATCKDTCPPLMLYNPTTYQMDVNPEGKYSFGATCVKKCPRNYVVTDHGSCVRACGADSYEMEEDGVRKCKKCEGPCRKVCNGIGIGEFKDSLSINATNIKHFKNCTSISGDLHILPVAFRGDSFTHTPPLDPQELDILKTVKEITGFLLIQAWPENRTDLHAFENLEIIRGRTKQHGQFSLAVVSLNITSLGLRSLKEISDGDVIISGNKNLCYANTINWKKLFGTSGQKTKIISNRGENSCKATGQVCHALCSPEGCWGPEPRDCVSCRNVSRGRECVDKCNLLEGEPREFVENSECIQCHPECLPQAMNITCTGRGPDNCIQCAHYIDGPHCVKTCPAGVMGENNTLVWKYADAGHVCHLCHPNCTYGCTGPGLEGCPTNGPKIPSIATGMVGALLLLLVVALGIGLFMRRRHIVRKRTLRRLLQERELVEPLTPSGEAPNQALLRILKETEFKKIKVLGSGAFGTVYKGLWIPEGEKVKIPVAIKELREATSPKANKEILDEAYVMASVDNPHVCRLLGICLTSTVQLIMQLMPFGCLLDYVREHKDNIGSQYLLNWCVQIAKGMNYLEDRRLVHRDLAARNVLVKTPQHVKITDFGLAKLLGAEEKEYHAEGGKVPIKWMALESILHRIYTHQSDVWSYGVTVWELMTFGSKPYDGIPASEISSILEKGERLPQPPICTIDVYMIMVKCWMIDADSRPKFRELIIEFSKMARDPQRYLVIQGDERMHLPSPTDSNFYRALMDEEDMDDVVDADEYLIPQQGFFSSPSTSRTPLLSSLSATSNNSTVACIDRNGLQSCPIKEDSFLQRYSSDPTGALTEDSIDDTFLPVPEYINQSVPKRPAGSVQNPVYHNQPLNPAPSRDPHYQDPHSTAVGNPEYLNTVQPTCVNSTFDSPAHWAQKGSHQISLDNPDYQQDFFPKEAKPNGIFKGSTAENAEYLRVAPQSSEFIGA
broad panel of kinases (Homo sapiens, UniProt P08581, M1250T), sequence (P08581 25-1390 M1250T limits assumed): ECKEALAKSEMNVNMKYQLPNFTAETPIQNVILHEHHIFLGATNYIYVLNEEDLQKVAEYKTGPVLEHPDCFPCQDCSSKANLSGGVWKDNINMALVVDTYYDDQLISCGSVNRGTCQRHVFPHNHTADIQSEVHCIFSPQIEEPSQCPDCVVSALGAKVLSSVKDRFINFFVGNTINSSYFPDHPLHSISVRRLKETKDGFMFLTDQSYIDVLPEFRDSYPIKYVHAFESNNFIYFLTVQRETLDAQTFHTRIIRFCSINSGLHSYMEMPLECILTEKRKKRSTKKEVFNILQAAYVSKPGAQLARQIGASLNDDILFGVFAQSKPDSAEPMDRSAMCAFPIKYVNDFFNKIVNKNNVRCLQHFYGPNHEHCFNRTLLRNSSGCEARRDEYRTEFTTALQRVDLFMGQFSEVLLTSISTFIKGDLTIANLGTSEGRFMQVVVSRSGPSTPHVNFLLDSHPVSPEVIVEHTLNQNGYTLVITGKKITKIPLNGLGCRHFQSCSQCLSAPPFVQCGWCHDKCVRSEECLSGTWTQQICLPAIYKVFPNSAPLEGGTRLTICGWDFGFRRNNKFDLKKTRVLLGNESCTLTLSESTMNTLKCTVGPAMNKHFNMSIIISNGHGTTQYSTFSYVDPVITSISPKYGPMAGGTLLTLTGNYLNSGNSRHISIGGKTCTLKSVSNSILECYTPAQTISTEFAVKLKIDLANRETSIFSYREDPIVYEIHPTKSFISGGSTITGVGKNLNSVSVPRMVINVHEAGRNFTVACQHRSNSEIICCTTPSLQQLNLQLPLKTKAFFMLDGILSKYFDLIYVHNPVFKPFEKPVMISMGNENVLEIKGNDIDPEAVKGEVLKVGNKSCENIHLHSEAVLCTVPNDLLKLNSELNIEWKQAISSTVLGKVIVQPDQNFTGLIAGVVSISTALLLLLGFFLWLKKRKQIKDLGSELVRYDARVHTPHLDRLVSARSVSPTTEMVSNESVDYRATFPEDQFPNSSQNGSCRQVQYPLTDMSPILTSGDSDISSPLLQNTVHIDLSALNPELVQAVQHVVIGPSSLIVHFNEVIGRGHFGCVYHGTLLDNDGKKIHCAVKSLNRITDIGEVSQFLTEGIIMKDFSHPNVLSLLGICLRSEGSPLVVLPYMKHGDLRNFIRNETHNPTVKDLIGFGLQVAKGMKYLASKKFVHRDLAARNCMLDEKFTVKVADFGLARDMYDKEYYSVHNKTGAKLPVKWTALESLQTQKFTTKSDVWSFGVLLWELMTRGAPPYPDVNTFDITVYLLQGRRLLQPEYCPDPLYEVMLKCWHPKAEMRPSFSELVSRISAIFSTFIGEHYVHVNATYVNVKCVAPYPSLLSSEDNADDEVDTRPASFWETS
broad panel of kinases (Homo sapiens, UniProt P50613), sequence (P50613 2-346 limits assumed): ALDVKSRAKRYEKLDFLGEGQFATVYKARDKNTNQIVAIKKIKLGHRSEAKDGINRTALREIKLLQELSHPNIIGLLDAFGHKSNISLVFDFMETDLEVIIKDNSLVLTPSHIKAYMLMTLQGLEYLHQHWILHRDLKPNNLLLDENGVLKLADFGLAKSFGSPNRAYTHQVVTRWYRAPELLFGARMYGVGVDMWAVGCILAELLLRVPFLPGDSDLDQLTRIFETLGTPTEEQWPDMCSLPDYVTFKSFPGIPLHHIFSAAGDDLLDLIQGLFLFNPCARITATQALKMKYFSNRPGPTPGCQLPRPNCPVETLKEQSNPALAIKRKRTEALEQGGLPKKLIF

C=CC(=O)N1CC[C@H](Nc2nc(CN3CCOCC3)cc(Nc3ncc(C(=O)Nc4c(C)cccc4C)s3)n2)C1 [Example I-2]
percent of control binding remaining (lower = stronger binding) [1]: 100% | percent of control binding remaining (lower = stronger binding) [2]: 91% | percent of control binding remaining (lower = stronger binding) [3]: 98% | percent of control binding remaining (lower = stronger binding) [4]: 100% | percent of control binding remaining (lower = stronger binding) [5]: 0% | percent of control binding remaining (lower = stronger binding) [6]: 48% | percent of control binding remaining (lower = stronger binding) [7]: 0.3% | percent of control binding remaining (lower = stronger binding) [8]: 11% | percent of control binding remaining (lower = stronger binding) [9]: 76% | percent of control binding remaining (lower = stronger binding) ([10]; JAK1(JH1domain-catalytic)): 100% | percent of control binding remaining (lower = stronger binding) ([10]; JAK1(JH2domain-pseudokinase)): 100% | percent of control binding remaining (lower = stronger binding) [11]: 97% | percent of control binding remaining (lower = stronger binding) [12]: 8.6% | percent of control binding remaining (lower = stronger binding) [13]: 57% | percent of control binding remaining (lower = stronger binding) [14]: 100% | percent of control binding remaining (lower = stronger binding) [15]: 90% | percent of control binding remaining (lower = stronger binding) [16]: 0.25% | percent of control binding remaining (lower = stronger binding) [17]: 97% | % change compared to control [18]: 100% | percent of control binding remaining (lower = stronger binding) [19]: 78% | percent of control binding remaining (lower = stronger binding) [20]: 98% | percent of control binding remaining (lower = stronger binding) [21]: 94% | percent of control binding remaining (lower = stronger binding) [22]: 7.7% | percent of control binding remaining (lower = stronger binding) [23]: 63% | percent of control binding remaining (lower = stronger binding) [24]: 100% | percent of control binding remaining (lower = stronger binding) [25]: 97% | percent of control binding remaining (lower = stronger binding) [26]: 83% | percent of control binding remaining (lower = stronger binding) [27]: 0.5% | percent of control binding remaining (lower = stronger binding) [28]: 97% | percent of control binding remaining (lower = stronger binding) [29]: 73% | percent of control binding remaining (lower = stronger binding) [30]: 0.3% | percent of control binding remaining (lower = stronger binding) [31]: 97% | percent of control binding remaining (lower = stronger binding) [32]: 100% | percent of control binding remaining (lower = stronger binding) [33]: 90% | percent of control binding remaining (lower = stronger binding) [34]: 47% | percent of control binding remaining (lower = stronger binding) [35]: 100% | percent of control binding remaining (lower = stronger binding) ([36]; RSK4(Kin.Dom.1-N-terminal)): 100% | percent of control binding remaining (lower = stronger binding) ([36]; RSK4(Kin.Dom.2-C-terminal)): 100%

C=CC(=O)N1CC[C@H](Nc2nccc(Nc3ncc(C(=O)Nc4c(C)cccc4C)s3)n2)C1 [Example I-3]
percent of control binding remaining (lower = stronger binding) [1]: 100% | percent of control binding remaining (lower = stronger binding) [2]: 80% | percent of control binding remaining (lower = stronger binding) [3]: 87% | percent of control binding remaining (lower = stronger binding) [4]: 100% | percent of control binding remaining (lower = stronger binding) [5]: 0% | percent of control binding remaining (lower = stronger binding) [6]: 56% | percent of control binding remaining (lower = stronger binding) [7]: 0.5% | percent of control binding remaining (lower = stronger binding) [8]: 11% | percent of control binding remaining (lower = stronger binding) [9]: 96% | percent of control binding remaining (lower = stronger binding) ([10]; JAK1(JH1domain-catalytic)): 100% | percent of control binding remaining (lower = stronger binding) ([10]; JAK1(JH2domain-pseudokinase)): 100% | percent of control binding remaining (lower = stronger binding) [11]: 93% | percent of control binding remaining (lower = stronger binding) [12]: 8.4% | percent of control binding remaining (lower = stronger binding) [13]: 70% | percent of control binding remaining (lower = stronger binding) [14]: 100% | percent of control binding remaining (lower = stronger binding) [15]: 98% | percent of control binding remaining (lower = stronger binding) [16]: 0.45% | percent of control binding remaining (lower = stronger binding) [17]: 100% | % change compared to control [18]: 100% | percent of control binding remaining (lower = stronger binding) [19]: 100% | percent of control binding remaining (lower = stronger binding) [20]: 93% | percent of control binding remaining (lower = stronger binding) [21]: 94% | percent of control binding remaining (lower = stronger binding) [22]: 4.6% | percent of control binding remaining (lower = stronger binding) [23]: 74% | percent of control binding remaining (lower = stronger binding) [24]: 100% | percent of control binding remaining (lower = stronger binding) [25]: 95% | percent of control binding remaining (lower = stronger binding) [26]: 100% | percent of control binding remaining (lower = stronger binding) [27]: 1.6% | percent of control binding remaining (lower = stronger binding) [28]: 100% | percent of control binding remaining (lower = stronger binding) [29]: 88% | percent of control binding remaining (lower = stronger binding) [30]: 0.25% | percent of control binding remaining (lower = stronger binding) [31]: 90% | percent of control binding remaining (lower = stronger binding) [32]: 100% | percent of control binding remaining (lower = stronger binding) [33]: 100% | percent of control binding remaining (lower = stronger binding) [34]: 49% | percent of control binding remaining (lower = stronger binding) [35]: 80% | percent of control binding remaining (lower = stronger binding) ([36]; RSK4(Kin.Dom.1-N-terminal)): 100% | percent of control binding remaining (lower = stronger binding) ([36]; RSK4(Kin.Dom.2-C-terminal)): 97%
